Source: patent publication US7262325B2, “Method of preparing salicylamides” (Emisphere Technologies, Inc., priority 2000, dated 2007)

From the text: A preferred base for such an alkylation reaction is sodium carbonate. […] The water content of the reaction mixture may also be reduced by performing the reaction in a low pressure atmosphere (e.g a vacuum).

SMILES: O=c1[n-]c(=O)c2ccccc2o1.[Na+] [carsalam-sodium]
- solubility in DMAC: about 6%
